One block for each compound: values may come before it. The source made the active and inactive calls.
Tests used:
[1] = target: T1, DNA repair protein RAD52 homolog (Homo sapiens, UniProt P43351); assay type: functional, biochemical
T1 sequence (P43351 whole entry): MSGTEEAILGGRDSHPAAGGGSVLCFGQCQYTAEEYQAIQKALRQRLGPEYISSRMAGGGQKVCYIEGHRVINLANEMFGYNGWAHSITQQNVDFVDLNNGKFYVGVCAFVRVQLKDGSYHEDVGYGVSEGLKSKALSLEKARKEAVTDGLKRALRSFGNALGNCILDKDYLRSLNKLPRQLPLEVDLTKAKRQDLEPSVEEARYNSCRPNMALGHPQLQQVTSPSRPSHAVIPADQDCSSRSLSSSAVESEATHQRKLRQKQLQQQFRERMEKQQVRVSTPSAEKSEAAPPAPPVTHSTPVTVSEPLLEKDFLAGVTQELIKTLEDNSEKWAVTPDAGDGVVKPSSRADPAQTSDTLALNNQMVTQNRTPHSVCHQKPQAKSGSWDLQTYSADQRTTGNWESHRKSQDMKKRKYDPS

[2] = target: T2, Carboxy-terminal domain RNA polymerase II polypeptide A small phosphatase 1 (Homo sapiens, UniProt Q9GZU7); assay: CTDSP1 inhibitors, concentration-response, biochemical, absorbance readout, ultra-high-throughput screen actives (AID 540297); assay type: functional
T2 sequence (Q9GZU7 whole entry): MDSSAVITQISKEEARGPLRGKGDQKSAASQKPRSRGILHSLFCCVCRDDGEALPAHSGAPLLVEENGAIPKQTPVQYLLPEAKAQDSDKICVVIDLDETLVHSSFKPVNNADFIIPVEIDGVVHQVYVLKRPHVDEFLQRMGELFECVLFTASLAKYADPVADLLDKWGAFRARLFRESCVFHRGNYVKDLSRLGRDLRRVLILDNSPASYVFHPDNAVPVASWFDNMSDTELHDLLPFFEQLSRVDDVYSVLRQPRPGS

[3] = target: DNA (cytosine-5)-methyltransferase 1 (Homo sapiens, UniProt P26358); assay: inhibition of DNA methylation by DNMT1 – biochemical, fluorescent molecular beacon, confirmation (AID 602386); assay type: functional
Sequence of DNA (cytosine-5)-methyltransferase 1 (P26358 whole entry): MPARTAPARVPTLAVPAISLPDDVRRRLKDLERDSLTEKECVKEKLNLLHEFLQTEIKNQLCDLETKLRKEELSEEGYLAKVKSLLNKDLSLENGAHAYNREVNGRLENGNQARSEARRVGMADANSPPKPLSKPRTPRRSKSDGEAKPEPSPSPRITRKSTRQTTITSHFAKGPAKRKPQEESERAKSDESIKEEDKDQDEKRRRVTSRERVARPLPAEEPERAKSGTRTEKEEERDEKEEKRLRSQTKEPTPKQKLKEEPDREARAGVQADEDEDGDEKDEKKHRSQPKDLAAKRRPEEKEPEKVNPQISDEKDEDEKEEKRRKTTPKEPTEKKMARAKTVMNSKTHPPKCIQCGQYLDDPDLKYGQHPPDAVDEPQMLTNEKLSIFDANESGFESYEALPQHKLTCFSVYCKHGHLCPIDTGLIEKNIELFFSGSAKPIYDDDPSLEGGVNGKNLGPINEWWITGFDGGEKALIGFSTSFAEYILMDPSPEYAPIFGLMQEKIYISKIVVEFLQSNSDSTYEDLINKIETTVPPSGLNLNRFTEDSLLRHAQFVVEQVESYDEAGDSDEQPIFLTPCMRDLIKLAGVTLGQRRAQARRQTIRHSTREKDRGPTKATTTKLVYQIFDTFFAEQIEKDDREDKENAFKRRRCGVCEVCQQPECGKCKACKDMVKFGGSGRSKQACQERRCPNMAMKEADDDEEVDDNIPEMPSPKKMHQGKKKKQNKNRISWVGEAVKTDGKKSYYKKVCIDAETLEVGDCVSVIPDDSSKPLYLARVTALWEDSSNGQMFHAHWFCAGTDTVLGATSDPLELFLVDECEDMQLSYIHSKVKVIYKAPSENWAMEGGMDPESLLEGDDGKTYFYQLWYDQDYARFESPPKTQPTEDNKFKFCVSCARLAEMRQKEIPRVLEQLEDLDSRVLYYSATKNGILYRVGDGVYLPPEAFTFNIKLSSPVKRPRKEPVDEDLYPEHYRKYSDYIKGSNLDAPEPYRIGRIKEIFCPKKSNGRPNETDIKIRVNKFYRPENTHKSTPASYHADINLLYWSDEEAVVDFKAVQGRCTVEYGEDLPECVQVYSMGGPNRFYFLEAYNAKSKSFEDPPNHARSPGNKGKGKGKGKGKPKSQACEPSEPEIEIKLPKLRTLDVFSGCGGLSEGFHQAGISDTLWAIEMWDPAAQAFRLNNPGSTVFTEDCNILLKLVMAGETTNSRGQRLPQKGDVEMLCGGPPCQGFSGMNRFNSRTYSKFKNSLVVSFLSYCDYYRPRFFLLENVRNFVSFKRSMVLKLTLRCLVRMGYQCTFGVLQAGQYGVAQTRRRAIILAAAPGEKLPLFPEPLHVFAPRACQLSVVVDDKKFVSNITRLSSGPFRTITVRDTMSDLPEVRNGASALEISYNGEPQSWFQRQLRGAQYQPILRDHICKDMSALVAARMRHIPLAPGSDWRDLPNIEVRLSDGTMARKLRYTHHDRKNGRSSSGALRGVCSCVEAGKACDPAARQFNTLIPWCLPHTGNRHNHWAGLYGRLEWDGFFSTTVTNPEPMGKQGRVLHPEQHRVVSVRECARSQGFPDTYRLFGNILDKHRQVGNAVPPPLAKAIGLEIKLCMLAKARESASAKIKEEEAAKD

[4] = target: SWI/SNF-related matrix-associated actin-dependent regulator of chromatin subfamily A member 2 (Homo sapiens, UniProt P51531); assay: Luminescence-based cell-based high throughput dose response assay to identify activators of the function of SWI/SNF related, matrix associated, actin dependent regulator of chromatin, subfamily a, member 2 (SMARCA2, BRM).; assay type: functional
Sequence of SWI/SNF-related matrix-associated actin-dependent regulator of chromatin subfamily A member 2 (P51531 whole entry): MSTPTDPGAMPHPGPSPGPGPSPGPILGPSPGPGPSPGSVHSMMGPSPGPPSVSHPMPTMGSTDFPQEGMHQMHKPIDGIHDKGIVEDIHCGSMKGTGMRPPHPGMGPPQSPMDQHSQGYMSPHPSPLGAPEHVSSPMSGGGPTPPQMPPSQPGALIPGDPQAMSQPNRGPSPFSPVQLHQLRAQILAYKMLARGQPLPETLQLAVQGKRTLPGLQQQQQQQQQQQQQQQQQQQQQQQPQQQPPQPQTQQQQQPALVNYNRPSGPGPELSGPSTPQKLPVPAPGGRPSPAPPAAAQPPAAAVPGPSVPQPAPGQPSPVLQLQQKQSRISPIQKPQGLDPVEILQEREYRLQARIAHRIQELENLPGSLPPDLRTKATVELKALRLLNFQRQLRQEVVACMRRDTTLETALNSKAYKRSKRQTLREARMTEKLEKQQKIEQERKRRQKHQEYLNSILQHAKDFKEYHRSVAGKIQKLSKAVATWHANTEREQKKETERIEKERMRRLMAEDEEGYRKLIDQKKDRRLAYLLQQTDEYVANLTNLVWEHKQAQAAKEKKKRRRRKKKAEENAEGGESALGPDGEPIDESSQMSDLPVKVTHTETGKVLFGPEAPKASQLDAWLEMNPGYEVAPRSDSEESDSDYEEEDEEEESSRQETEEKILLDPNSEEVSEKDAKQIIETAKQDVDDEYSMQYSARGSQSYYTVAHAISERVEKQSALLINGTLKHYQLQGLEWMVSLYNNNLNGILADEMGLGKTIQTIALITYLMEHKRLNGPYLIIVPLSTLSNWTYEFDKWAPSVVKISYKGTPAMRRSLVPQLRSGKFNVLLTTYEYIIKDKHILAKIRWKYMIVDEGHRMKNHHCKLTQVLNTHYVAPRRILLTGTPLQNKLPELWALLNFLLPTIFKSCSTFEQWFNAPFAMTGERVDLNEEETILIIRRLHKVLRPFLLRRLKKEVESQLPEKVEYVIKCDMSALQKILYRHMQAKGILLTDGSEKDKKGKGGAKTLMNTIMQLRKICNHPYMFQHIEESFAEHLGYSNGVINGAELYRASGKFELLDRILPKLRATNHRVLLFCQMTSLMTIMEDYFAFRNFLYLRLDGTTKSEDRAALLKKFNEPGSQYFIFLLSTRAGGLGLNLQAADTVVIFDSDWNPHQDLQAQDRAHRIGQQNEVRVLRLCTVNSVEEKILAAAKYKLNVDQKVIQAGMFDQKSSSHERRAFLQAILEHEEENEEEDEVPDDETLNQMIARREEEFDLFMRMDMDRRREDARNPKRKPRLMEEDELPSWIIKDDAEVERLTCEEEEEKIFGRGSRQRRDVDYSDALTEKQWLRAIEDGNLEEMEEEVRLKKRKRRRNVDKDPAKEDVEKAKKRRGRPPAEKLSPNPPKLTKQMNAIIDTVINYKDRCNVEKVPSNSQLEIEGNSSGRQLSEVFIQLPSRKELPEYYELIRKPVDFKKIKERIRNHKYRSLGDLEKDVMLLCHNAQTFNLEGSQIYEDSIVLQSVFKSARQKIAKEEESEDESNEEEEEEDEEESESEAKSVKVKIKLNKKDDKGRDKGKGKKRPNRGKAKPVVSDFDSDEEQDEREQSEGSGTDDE

[5] = Counterscreen for activators of the function of SWI/SNF related, matrix associated, actin dependent regulator of chromatin, subfamily a, member 2 (SMARCA2, BRM): Luminescence-based cell-based high throughput dose response assay to identify non-selective compounds using the VP16 reporter assay.; assay type: functional
[6] = target: T3, Aryl hydrocarbon receptor (Homo sapiens, UniProt P35869); settings: Potency;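 note: confirmatory quantitative high-throughput screen measuring activation of the AhR signaling pathway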
T3 sequence (P35869 whole entry): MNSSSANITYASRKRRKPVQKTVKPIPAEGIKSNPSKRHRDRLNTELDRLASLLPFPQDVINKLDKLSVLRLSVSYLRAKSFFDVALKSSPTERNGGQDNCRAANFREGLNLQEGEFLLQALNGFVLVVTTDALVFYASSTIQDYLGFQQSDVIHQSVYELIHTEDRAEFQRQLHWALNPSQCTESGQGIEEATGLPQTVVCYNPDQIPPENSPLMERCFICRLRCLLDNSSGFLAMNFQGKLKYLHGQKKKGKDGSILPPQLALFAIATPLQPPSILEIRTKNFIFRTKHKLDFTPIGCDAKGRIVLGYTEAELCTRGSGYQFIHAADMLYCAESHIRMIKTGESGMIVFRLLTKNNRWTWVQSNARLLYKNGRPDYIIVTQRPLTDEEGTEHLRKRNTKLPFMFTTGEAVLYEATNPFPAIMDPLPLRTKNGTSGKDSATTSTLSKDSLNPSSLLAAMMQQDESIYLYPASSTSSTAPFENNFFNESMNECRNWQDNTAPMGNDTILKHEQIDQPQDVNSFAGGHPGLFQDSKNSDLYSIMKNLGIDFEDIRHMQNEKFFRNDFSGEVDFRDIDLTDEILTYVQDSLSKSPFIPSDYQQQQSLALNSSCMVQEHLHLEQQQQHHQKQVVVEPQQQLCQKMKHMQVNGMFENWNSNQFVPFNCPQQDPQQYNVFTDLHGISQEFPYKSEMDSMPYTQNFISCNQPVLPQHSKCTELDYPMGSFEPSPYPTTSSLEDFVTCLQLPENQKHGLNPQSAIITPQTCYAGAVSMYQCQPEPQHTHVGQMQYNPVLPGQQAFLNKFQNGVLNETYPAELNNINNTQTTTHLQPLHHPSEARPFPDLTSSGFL

[7] = viability of PTEN-deleted HCT116 cells – cell-based, HCT116 PTEN knockout, dose response (AID 1047); assay type: functional;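 note: HCT116 colon tumor cells with PTEN knocked out; cells exposed to compound for 60 hours before readout; potency for loss of cell viability measured by luminescence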
[8] = viability of HCT116 lacking mutant beta-catenin – cell-based, human colon tumor, dose response (AID 1045); assay type: functional;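 note: HCT116 colon tumor cells with beta catenin knocked out; cells exposed to compound for 60 hours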
[9] = target: T4, Heat shock factor protein 1 (Mus musculus, UniProt P38532); assay: enhancement of HSF1-driven luciferase signal – cell-based, NIH3T3, luminescence, dose retest, confirmation (AID 435004); assay type: functional;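 note: stress induced by proteasome inhibitor MG132 added 30 min after compound; luciferase reporter driven by HSF1 response element in NIH3T3 cells; actives raise luminescence as potentiators of the MG132 stress response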
T4 sequence (P38532 whole entry): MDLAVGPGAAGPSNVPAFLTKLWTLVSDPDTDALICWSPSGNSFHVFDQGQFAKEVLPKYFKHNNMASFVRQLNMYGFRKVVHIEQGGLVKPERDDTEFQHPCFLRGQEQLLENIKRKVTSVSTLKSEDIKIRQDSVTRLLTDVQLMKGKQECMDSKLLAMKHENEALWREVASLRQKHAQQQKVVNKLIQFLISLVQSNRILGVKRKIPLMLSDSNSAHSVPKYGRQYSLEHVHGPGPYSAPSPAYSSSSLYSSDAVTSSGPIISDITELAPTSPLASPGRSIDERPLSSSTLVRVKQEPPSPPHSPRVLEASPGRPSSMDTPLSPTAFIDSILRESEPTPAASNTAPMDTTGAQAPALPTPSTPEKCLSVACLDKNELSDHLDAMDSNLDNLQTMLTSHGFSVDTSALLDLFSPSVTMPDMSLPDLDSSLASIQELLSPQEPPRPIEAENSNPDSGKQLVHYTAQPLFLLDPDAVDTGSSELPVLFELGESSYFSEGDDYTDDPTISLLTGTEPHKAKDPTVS

Melanocortin receptor 4 = Melanocortin receptor 4 (Homo sapiens, UniProt P32245); assay: inhibitors of MC4R cAMP signaling – cell-based, TR-FRET, biased antagonists, dose response (AID 602298); assay type: functional;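 note: antagonist potency against agonist-stimulated cAMP production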
Sequence of Melanocortin receptor 4 (P32245 whole entry): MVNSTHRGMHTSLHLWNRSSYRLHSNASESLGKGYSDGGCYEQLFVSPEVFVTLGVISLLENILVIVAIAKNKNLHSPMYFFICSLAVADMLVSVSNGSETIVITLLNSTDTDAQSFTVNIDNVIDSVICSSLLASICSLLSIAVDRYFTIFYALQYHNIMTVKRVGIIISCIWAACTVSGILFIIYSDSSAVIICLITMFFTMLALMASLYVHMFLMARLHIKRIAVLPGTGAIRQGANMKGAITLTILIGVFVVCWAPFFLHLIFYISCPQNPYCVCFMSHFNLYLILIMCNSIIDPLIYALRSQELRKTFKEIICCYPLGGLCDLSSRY

[10] = cAMP pathway inhibition in counterscreen cell line – TR-FRET cAMP detection, counter-screen for MC4R biased antagonist project, dose response (AID 602305); assay type: functional, cell-based;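 note: U2OS cells stimulated with forskolin near its EC80 as the cAMP inducer; potency is for inhibition of forskolin-stimulated cAMP signaling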
HEK293 [11] = assay: cells; settings: Homo sapiens
HEK293 [12] = assay: cells; settings: Homo sapiens; remark: listed apart in the source

AC50 [1]: 20.2 µM (active)
Structure (SMILES): NCCCNC(=S)NCCCN(Cc1ccc(Cl)cc1)c1ccc(Br)cn1

IC50 [2]: 2.3 µM (active)
IC50 [3]: 7.7 µM (active)
Structure (SMILES): Cc1ccccc1NC(=O)CSc1ccsc1[N+](=O)[O-]

Structure (SMILES): C=C1c2ccccc2NC(=O)N1c1ccc(OC)cc1
EC50 [4]: > 91.1 µM (inactive)
EC50 [5]: > 91.1 µM (inactive)

Structure (SMILES): N#Cc1ccccc1 [BENZONITRILE]
AC50 [6]: 7.08 µM (inconclusive)

Structure (SMILES): CCOC(=O)c1ccc(/N=c2\sc(C(=O)OC)cc(=O)n2Cc2ccco2)cc1
EC50 [7]: 7.5 µM (active)
EC50 [8]: 5.88 µM (active)
EC50 [9]: 16.8 µM (active)
IC50 (Melanocortin receptor 4): > 7.17 µM (active)
IC50 [10]: > 64.5 µM (inactive)
EC50 (HEK293 [11]): > 59.6 µM (inactive)
EC50 (HEK293 [12]): > 59.6 µM (inactive)
